Measured values: PMC5237291, “Sigma-2 receptor agonist derivatives of 1-Cyclohexyl-4-[3-(5-methoxy-1,2,3,4-tetrahydronaphthalen-1-yl)propyl]piperazine (PB28) induce cell death via mitochondrial superoxide production and caspase activation in pancreatic cancer” (BMC Cancer, 2017)
Like-named read-outs stand apart in the source and are kept apart here. Blank lines part the entries; values can stand above or below the compound they belong to.

Assays:
[1] = Toxicity evaluation on mice not bearing tumor (CBC, serum chemistry, pathology); assay type: in vivo, C57BL/6 mice; settings: for Off-target effects by necropsy and laboratory evaluations: naïve C57BL/6 mice, continuous daily treatment
Procedure: […] Mice from each treatment cohort were assessed for pathologic evaluation (Digestive Diseases Research Core Center at our institution). Blood was collected for complete blood count (CBC) and biochemical analysis (AST, ALT, BUN, total protein, glucose and Cr). Organs were examined grossly and histologically.

KCKO cells = assay: MTT cell viability, KCKO; assay type: cell-based; settings: Mus musculus, 24 h treatment, viability relative to vehicle
Procedure: (§1) Determination of cell growth was performed using the MTT assay at 24 h. On day 1, pancreatic cancer cell lines were plated at a density of 2 × 10^4 cells/well in black clear-bottom 96-well plates for 24 h prior to treatment in a volume of 100 μL. On day 2, the cells were treated for 24 h with the various drugs concentration (1 μM-100 μM). Untreated cells served as a control. The various drug-solvents (EtOH, DMSO) were added in each control to evaluate a possible solvent cytotoxicity. After the established incubation time with drugs (24 h), MTT (0.5 mg/ml) was added to each well, and after 3–4 h incubation at 37 °C, the supernatant was removed. The formazan crystals were solubilized using 100 μl of DMSO/EtOH (1:1) and the absorbance values at 570 and 630 nm were determined on the multi-mode microplate reader (BioTek instruments, Winooski, VT). Different drug concentrations were assayed in triplicates.
(§2) Statistical analyses and data plotting were performed using GraphPad Prism software version 6.03 (San Diego, CA). Results were expressed as mean ± standard error of the mean of at least 3 biological replicates. EC50 values were calculated by curve fitting normalized viability versus drug concentration. Differences in viability, caspase-3 activity, and tumor volume were analyzed using two-way ANOVA to identify differences and confirmed with paired two tailed t-tests. Mann-Whitney test was used to compare the difference in CBC and biochemistry analyses. Kaplan-Meier survival analyses were used to assess differences between treatment groups and were compared using a log-rank test. A p-value < 0.05 was considered significant for all analyses.

caspase-3 = assay: Caspase-Glo caspase-3 activity in Panc02 cells; assay type: cell-based, mouse; settings: 200 μM, 5 h
Procedure: Caspase-3 activity was measured in Panc02 cell lines with a Caspase-Glo® Assay Systems (Promega) according to protocol in which the reagent contain luminogenic caspase substrates that cleaved by activated caspase. […] The contents were then mixed using plate shaker for 30 s, and incubated at room temperature for 90 min. Luminescence signal was measured using multi-mode microplate reader (BioTek). Assay was performed in triplicates, and caspase activity was plotted compared cells treated with DMSO as a control.

BxPC3 cells [2] = assay: MitoSOX Red mitochondrial superoxide by flow cytometry, BxPC3; assay type: cell-based, human; settings: 50 μM, 2 h
Procedure: (§3) MitoSOX™ Red reagent is a novel fluorogenic dye specifically targeted to mitochondria in live cells. Oxidation of MitoSOX™ Red reagent by superoxide produces red fluorescence. Mitochondrial superoxide is generated as a byproduct of oxidative phosphorylation. […] MitoSOX™ Red reagent is readily oxidized by superoxide but not by other ROS- or reactive nitrogen species (RNS)–generating systems. Panc02, AsPC-1, KP-2 or BxPC3 cells were seeded into 12-well plates 24 h before treatment with sigma-2 ligands (50 μM) for 2 h at 37°C in presence or absence of α-tocopherol (100 μM) followed by staining with MitoSOX™ Red (5 μM). Two hours after red dye addition, the cells were washed twice with PBS and harvested with trypsin/EDTA buffer. The cells were washed twice with PBS before analysis with FACSCalibur (BD Bioscience, San Jose, CA). The oxidation product of MitoSOX™ Red by mitochondrial superoxide fluoresces with an emission maximus of 580 nm and was detected in the FL3 channel. Experiment was performed in triplicates.

sigma-2 receptor = settings: read-out: Affinity (Ki) σ2, cited from earlier work
MIAPaCa-2 cells = assay: MTT cell viability, MIAPaCa-2; assay type: cell-based; settings: Homo sapiens, MIA PaCa-2, 24 h treatment, viability relative to vehicle
Procedure: as §1, §2

KP02 cells = assay: MTT cell viability, KP02; assay type: cell-based, mouse; settings: 24 h treatment, viability relative to vehicle
Procedure: as §1, §2

AsPC1 cells = assay: MitoSOX Red mitochondrial superoxide by flow cytometry, AsPC1; assay type: cell-based, human; settings: 50 μM, 2 h
Procedure: as §3

AsPC-1 cells = assay: MTT cell viability, AsPC-1; assay type: cell-based; settings: Homo sapiens, ASPC1, 24 h treatment, viability relative to vehicle
Procedure: as §1, §2

Panc02 cells [3] = assay: MTT cell viability, Panc02; assay type: cell-based; settings: Mus musculus, 24 h treatment, viability relative to vehicle
Procedure: as §1, §2

Panc02 tumors = assay: In vivo tumor growth and survival, Panc02 tumors in C57BL/6 mice; settings: for Effect on tumor volume (in words): daily i.p. treatment, compared to vehicle or gemcitabine
Procedure: In this pre-clinical model, we utilized the Panc02 cell line, which is weakly immunogenic in C57BL/6 mice and aggressive with a subcutaneous inoculum of 1 × 10^5 cells being lethal within 6–8 weeks. In vivo studies with mice were performed to compare the effect of sigma-2 ligands with gemcitabine. Mice treated with vehicle alone (a mixture of 5% DMSO, 5% EtOH, and 10% Cremophor in H2O) served as the control cohort. Female C57BL/6 mice (10 weeks old, National Cancer Institute Laboratories) were injected in the right flank with 200 μL of a single-cell suspension of Panc02 cells in non-supplemented RPMI medium (1 × 10^6 cells per mouse). Treatment began when the mean tumor diameter was ~ 5 mm. […] Tumors were measured three times weekly in two dimensions with a digital caliper, and tumor volumes were calculated by the standard formula of Tumor Volume = Length x Width^2 × 0.5. All mice were euthanized when tumors reached a diameter of 15 mm or had ulcerated.

BxPC3 cells [4] = assay: MTT cell viability, BxPC3; assay type: cell-based, human; settings: 24 h treatment, viability relative to vehicle
Procedure: as §1, §2

Panc-1 cells = assay: MTT cell viability, Panc-1; assay type: cell-based; settings: Homo sapiens, 24 h treatment, viability relative to vehicle
Procedure: as §1, §2

Panc02 cells [5] = assay: ROS interference in cell viability (MTT with antioxidants); assay type: cell-based, mouse; settings: Panc02 cells, ligand 50 μM with NAC 100 μM, 24 h
Procedure: The interference of ROS in cell viability was indirectly determined by MTT assay reported above at 24 h. On day 1, Panc02 cells were plated at a density of 2 × 10^4 cells/well in opaque 96-well, clear-bottom plates 24 h prior to treatment. On day 2, cells were treated with the drugs (50 μM) in the presence or absence of α-tocopherol (100 μM) or N-Acetyl-L-cysteine (100 μM). After incubation (24 h) with drugs, MTT assay was performed as above.

Panc02 cells [6] = assay: MitoSOX Red mitochondrial superoxide by flow cytometry, Panc02; assay type: cell-based, mouse; settings: Panc02 cells, 50 μM, 2 h
Procedure: as §3

EC50 (MIAPaCa-2 cells): 29 µM
EC50 (AsPC-1 cells): 98 µM
EC50 (Panc02 cells [3]): 37 µM
EC50 (BxPC3 cells [4]): 42 µM
EC50 (BxPC3 cells [4]; Homo sapiens, BXPC-3, 24 h): ~45 µM
EC50 (Panc-1 cells): > 100 µM
SMILES: c1ccc2c(c1)c1ccccc1n2CCCN1CCN(C2CCCCC2)CC1 [F281, 1-Cyclohexyl-4-[3-(9H-carbazol-9-yl)propyl]piperazine]
Off-target effects by necropsy and laboratory evaluations [1]: no major off-target effects
EC50 (KCKO cells): 62 µM
Caspase-3 activation (in words) (caspase-3; compared to DMSO control): did not activate at all
Mitochondrial superoxide generation in BxPC3 (BxPC3 cells [2]): generated some mitochondrial superoxide
Ki (sigma-2 receptor; ref Ferorelli et al., 2007 [27]): 0.0126 µM
EC50 (KP02 cells): 49 µM
EC50 (KP02 cells; Mus musculus, 24 h): ~45 µM
Mitochondrial superoxide generation in AsPC1 (AsPC1 cells): generated some mitochondrial superoxide
Effect on tumor volume (in words) (Panc02 tumors; Panc02 s.c. in female C57BL/6): did not confer a significantly different tumor volume than vehicle alone

SMILES: Fc1cccc(F)c1[C@H]1CC[C@@H](N2CCN(C3CCCCC3)CC2)CC1 [PB282]
Off-target effects by necropsy and laboratory evaluations [1]: no major off-target effects
Creatinine ([1]; not tumor-bearing C57BL/6 mice, n = 3, daily i.p., 5 days, control 0.34 ± 0.02): 0.35 ± 0.03 mg/dL
AST ([1]; not tumor-bearing C57BL/6 mice, n = 3, daily i.p., 5 days, control 5.6 ± 0.05): 5.5 ± 0.07 μ/L
RBC ([1]; not tumor-bearing C57BL/6 mice, n = 3, daily i.p., 5 days, control 7.14 ± 0.1): 9.91 ± 0.31 10^6/μL
WBC ([1]; not tumor-bearing C57BL/6 mice, n = 3, daily i.p., 5 days, control 10.58 ± 0.2): 5.78 ± 0.78 10^3/μL
HGB ([1]; not tumor-bearing C57BL/6 mice, n = 3, daily i.p., 5 days, control 10.7 ± 0.7): 15 ± 0.4 g/dL
MCH ([1]; not tumor-bearing C57BL/6 mice, n = 3, daily i.p., 5 days, control 15 ± 0.54): 15.15 ± 0.05 pg
BUN ([1]; not tumor-bearing C57BL/6 mice, n = 3, daily i.p., 5 days, control 27 ± 0.4): 24.5 ± 0.5 mg/dL
MCHC ([1]; not tumor-bearing C57BL/6 mice, n = 3, daily i.p., 5 days, control 29.2 ± 1.21): 29.4 ± 0.3%
HCT ([1]; not tumor-bearing C57BL/6 mice, n = 3, daily i.p., 5 days, control 36.6 ± 0.08): 51.1 ± 1.9%
MCV ([1]; not tumor-bearing C57BL/6 mice, n = 3, daily i.p., 5 days, control 51.2 ± 0.32): 51.55 ± 0.35 fL
ALT ([1]; not tumor-bearing C57BL/6 mice, n = 3, daily i.p., 5 days, control 260 ± 21): 221 ± 63 μ/L
Platelets ([1]; not tumor-bearing C57BL/6 mice, n = 3, daily i.p., 5 days, control 486 ± 67): 649.5 ± 167.5 10^3/μL
EC50 (KCKO cells): 90 µM
Increase of caspase-3 activity compared to cells treated with DMSO vehicle (caspase-3): 11.8 fold
Ki (sigma-2 receptor; ref Abate, et al., 2011 [28]): 0.0141 µM
EC50 (MIAPaCa-2 cells): 51 µM
EC50 (KP02 cells; Mus musculus, 24 h): > 100 µM
EC50 (AsPC-1 cells): > 100 µM
EC50 (Panc02 cells [3]): > 100 µM
Effect on tumor volume (in words) (Panc02 tumors; Panc02 s.c. in female C57BL/6): decreased tumor volume similar to gemcitabine alone
Mean tumor volume following conclusion of treatment (Panc02 tumors; Panc02 s.c. in female C57BL/6, i.p. daily for two weeks (gemcitabine once weekly), vehicle mean = 924 mm^3): 483 mm^3
Median survival (Panc02 tumors; Panc02 tumor-bearing C57BL/6 mice, treatment discontinued on day 15, DMSO (vehicle) 23 days): 29 days
EC50 (BxPC3 cells [4]; Homo sapiens, BXPC-3, 24 h): > 100 µM
EC50 (Panc-1 cells): > 100 µM
Cell death on co-treatment with NAC (Panc02 cells [5]): even higher levels of cell death
Increase in MitoSOX fluorescence intensity compared to cells treated with DMSO (Panc02 cells [6]): 6.7 fold
